Data taken from article PMC6220303 (EMBO Molecular Medicine, 2018).

Columns and labels:
Lipoxygenase 5-LO = Lipoxygenase 5-LO (Homo sapiens, UniProt P09917); test: Receptor panel; format: biochemical; details: read-out: Inhibition at 10 µM
Description: Cellular Aβ release assays were done in CHO cells stably transfected with human wild‐type and human APP were done as described (Neumann et al, 2015). Determinations of logD, pKa, and binding to brain homogenates were done internally at Novartis, Basel. Plasma protein binding was determined by equilibrium dialysis using diluted plasma from the corresponding species. MDR‐1‐MDCK cells were obtained from Prof. A. Berns, Netherlands Cancer Institute, Amsterdam NL, and bi‐directional transport measurements were done as described (Rueeger et al, 2011). Receptor binding assays were done against an internal receptor panel and externally at Ricerca Biosciences, Peitou, Taiwan. In vitro binding and cellular patch clamp assays for hERG were done at Preclinical Safety, Novartis, Basel.

APP23‐transgenic mice = test: Chronic treatment of APP23-transgenic mice, 6 months in food; format: in vivo, mouse
Description: The total amount of Aβ40 and Aβ42 in formic acid‐solubilized forebrain was determined by Aβ immunoassay. […] Next, we investigated the effects of long‐term Aβ reduction on downstream pathology relevant for Alzheimer's disease, in particular neuroinflammation. Specifically, we used double‐immunofluorescence staining with NT12+anti‐Iba1 and NT12+anti‐GFAP to examine the number and localization of microglia and activated astrocytes, respectively (Fig 4E). […] The reason for the different sensitivity of microglia and astrocytes distant to plaques is currently not clear.
Electrochemiluminescence immunoassays (Mesoscale Diagnostics, Rockville, MD, USA) were used to determine Aβ38, Aβ40, Aβ42, sAPPα, and sAPPβ. For studies in normal mice and rats, the endogenous Aβ40 was extracted from the brain homogenate with 1% Triton X‐100, and the 4G8‐based assay kit was used for quantification according to the manufacturer's instructions. CSF was collected from the cisterna magna and also analyzed using the 4G8 kit. For studies in dogs, CSF was collected via a ventricular port, and the 6E10‐based Mesoscale Diagnostics kit for Aβ was used. For studies in APP23 mice, Aβ40 and Aβ42 were determined after extraction with 70% formic acid and subsequent neutralization.
Amyloid plaques were stained using the Novartis-internal rabbit anti-Aβ antibody NT12, which recognizes all forms of Aβ (Neumann et al, 2015). Activated astrocytes were detected using a commercial rabbit anti-GFAP (Z0334, Dako Schweiz GmbH, Baar, Switzerland, dilution 1:2000 in antibody diluent). Microglia cells were detected using a rabbit anti-Iba1 antibody (019-19741, Wako Chemicals GmbH, Neuss, Germany, dilution 1:200 in antibody diluent). All stainings were performed using the fully automated instrument Ventana Discovery® Ultra (Roche Diagnostics Schweiz AG, Rotkreuz, Switzerland). All chemicals were provided by Roche Diagnostic. Paraffin-embedded brain tissue sections of 3 µm were freshly cut and collected on SuperFrost+ slides. The tissues sections were de-paraffinized and rehydrated under solvent-free conditions (EZprep solution) followed by antigen retrieval (demasking) performed by heat retrieval cycles for 32 min in EDTA-based buffer (CC1 solution). Subsequently, slides were blocked for 4 min using the DISC Inhibitor RUO (reference 07017944001). The primary antibody anti-NT12 diluted at 1:20 000 in antibody diluent was manually added to tissue sections and incubated for 1h at room temperature. A short post-fixation (glutaraldehyde at 0.05%) was done before applying the […]
Detection was performed using the DISCOVERY FITC® following the manufacturer’s recommendations. Slides were then heat denaturated at 92°C for 20 min before a manual application of the second primary antibody (anti-GFAP diluted at 1:2000, anti-Iba1 diluted at 1:200) and incubated for 1h at room temperature. Sections were then incubated for 20 min at room temperature with UltraMap-anti-Rabbit HRP antibody, and the DISCOVERY Rhodamine kit […]
The slides were washed and mounted using Prolong® Gold antifade reagent (P36931, ThermoFisher, Switzerland) and further scanned with the Hamamatsu slide scanner instrument […]
(NanoZoomer 2.0 HT, scanning software NDP-Scan Version 2.5, Hamamatsu Photonics France, Swiss Office, Solothurn, Switzerland) at the 40x objective. The scanning settings were as follow: the exposure time with the DAPI filter was set at 57 ms, as was the FITC filter. The exposure time for the TRITC filter (detection of Rhodamine) was set at 14.2 ms.
For the quantitative plaque and blood vessel-associated Aβ evaluation based on image analysis, a proprietary image analysis platform (ASTORIA, Automated Stored Image Analysis) was developed based on MS Visual Studio 2010 and many functions from Matrox MIL V9 libraries (Matrox Inc, Quebec, Canada).
For the Aβ plaque, neuroinflammation and blood vessel analyses, the following sequence of steps was performed. (1) Slides were scanned with Hamamatsu Nanozoomer at 40x […]
magnification. […]

Sequence of Lipoxygenase 5-LO (P09917 whole entry): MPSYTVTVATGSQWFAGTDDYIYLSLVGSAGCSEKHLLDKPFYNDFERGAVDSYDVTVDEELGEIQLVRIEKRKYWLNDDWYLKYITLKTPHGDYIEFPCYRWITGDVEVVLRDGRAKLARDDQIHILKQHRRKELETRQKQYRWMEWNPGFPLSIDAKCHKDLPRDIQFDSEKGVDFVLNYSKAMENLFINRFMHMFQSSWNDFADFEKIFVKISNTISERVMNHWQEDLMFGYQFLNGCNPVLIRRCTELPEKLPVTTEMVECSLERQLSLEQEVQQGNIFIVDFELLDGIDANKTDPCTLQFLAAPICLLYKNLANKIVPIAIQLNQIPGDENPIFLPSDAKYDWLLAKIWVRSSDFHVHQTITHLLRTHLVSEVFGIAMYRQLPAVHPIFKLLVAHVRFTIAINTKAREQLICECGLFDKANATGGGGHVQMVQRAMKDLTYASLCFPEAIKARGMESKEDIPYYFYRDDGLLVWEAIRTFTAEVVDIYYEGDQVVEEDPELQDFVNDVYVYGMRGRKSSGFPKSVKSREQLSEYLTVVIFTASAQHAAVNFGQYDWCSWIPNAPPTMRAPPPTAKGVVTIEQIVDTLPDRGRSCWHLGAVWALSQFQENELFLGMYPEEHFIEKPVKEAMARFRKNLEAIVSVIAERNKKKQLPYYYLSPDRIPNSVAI

Q: Which results are given for `C[C@@]1(c2nc(NC(=O)c3ncc(C(F)(F)F)cc3Cl)ccc2F)CO[C@@](C)(C(F)(F)F)C(N)=N1` [CNP520]?
A: inhibition at 10 µM (Lipoxygenase 5-LO): 66%; CNP520 concentration in blood and brain at end of study (APP23‐transgenic mice; 4 and 40 mg/kg/day in food): approximately dose‐proportional; total Aβ-plaque area in the cortex (normalized to sample area) compared with vehicle (APP23‐transgenic mice; 4 and 40 mg/kg/day in food, 6 months, dose-dependent): decreased; sAPPα in mouse brain (APP23‐transgenic mice; 6 months): increased; increase in GFAP-stained astrocytes (APP23‐transgenic mice; 6 months, dose-dependent): prevented this increase; sAPPβ in mouse brain (APP23‐transgenic mice; 6 months, dose-dependent): decreased; formic acid-soluble Aβ40 and Aβ42 in forebrain compared with vehicle (APP23‐transgenic mice; high dose 40 mg/kg/day, 6 months): profoundly reduced; effect on CAA (vascular Aβ) in APP23 mice (APP23‐transgenic mice; separate study, first data, authors' response in review file): reduction of vascular Aβ
